Laboratory results as given in patent publication US9174932B2, “CaSR agonists” (AJINOMOTO CO., INC., priority 2008, dated 2015).
One block for each compound: values may come before it.

Tests used:
human CaSR = biological target: T1, human CaSR (Homo sapiens, UniProt P41180, E1011Q); assay: Evaluation of CaSR agonistic activity (293E cells transfected with hCaSR, Ca2+ fluorescent indicator, FLIPR); format: cell-based; details: 293E cells expressing human CaSR; concentration giving activation rate 50%
T1 construct: expressed in transfected cells; host or cells: 293E cells (HEK293 expressing EBNA1, ATCC CRL-10852), transient transfection of hCaSR/pcDNA3.1
T1 sequence (P41180 20-1078 E1011Q): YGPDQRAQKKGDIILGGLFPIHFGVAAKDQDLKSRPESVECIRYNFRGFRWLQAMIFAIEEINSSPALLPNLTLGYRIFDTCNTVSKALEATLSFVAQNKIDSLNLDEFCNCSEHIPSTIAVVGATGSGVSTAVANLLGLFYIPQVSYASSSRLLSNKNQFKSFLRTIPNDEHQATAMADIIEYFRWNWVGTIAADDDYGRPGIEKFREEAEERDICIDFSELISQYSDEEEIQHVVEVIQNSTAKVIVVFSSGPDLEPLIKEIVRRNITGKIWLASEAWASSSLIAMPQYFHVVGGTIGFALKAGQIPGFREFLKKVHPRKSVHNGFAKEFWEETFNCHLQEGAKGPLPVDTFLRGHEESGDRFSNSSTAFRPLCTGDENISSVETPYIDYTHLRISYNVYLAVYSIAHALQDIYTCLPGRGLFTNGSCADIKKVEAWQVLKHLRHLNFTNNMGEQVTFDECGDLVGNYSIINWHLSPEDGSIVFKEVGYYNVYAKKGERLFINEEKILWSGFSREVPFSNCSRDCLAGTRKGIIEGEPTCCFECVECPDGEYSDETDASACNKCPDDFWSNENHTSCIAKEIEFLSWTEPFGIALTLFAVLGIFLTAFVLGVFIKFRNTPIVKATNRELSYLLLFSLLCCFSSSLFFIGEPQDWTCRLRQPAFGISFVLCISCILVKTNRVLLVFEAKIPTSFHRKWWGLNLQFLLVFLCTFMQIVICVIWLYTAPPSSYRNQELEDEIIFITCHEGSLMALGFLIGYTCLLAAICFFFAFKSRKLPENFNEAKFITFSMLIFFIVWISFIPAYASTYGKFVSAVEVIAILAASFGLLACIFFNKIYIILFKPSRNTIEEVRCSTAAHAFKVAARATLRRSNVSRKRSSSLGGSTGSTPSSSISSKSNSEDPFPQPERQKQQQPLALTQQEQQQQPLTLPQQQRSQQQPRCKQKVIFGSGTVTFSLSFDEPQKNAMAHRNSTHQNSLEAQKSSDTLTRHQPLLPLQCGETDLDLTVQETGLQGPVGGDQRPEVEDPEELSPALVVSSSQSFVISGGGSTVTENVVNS
Experimental: 293E cells (HEK293 cell expressing EBNA1, ATCC No. CRL-10852) were cultured in DMEM containing 10% fetal bovine serum (Dulbecco's modified Eagle medium containing […] Glucose, by NACALAI TESQUE, INC.), in the presence of 250 μg/mL of G418. The cells were spread on a petri dish of 10 cm diameter in 1.8×10^6 cells/15 mL. After leaving them in the CO2 incubator (5% CO2, 37° C.) for 24 hours, plasmid expressing human CaSR: hCaSR/pcDNA3.1 was transfected with a transfection reagent: Mirus TransIT 293 (by Takara Bio Inc.). After leaving it in the CO2 incubator for 24 hours, the cells were collected by DMEM containing 10% fetal bovine serum and seeded on poly-D-lysine coat 384 well plate (by Falcon) in 15,000 cells/well. After leaving them in the CO2 incubator for 24 hours, the medium was removed. Then, 50 μL/well of Ca^2+ fluorescent indicator: Calcium 4 Assay Kit (by Molecular Devices) that was dissolved in an assay buffer (146 mM NaCl, 5 mM KCl, 1 mM MgSO4, 1 mg/mL Glucose, 20 mM HEPES (pH 7.2), 1.5 mM CaCl2) was added thereto, and left at 37° C. for 1 hour and at room temperature for 30 minutes to absorb the fluorescent indicator. The 384 well plate was transferred to FLIPR (by Molecular Devices). Then, 12.5 μL/well of a compound that was dissolved in a 0.1% BSA containing assay buffer was added thereto, and change in fluorescence intensity was measured for 3 minutes. Meanwhile, Compound No. 20 was purchased from Bachem.
The difference between the maximum value and the minimum value (RFU(Max−Min)) of the fluorescence intensity before and after adding a compound was automatically calculated by FLIPR. RFU(Max−Min) when adding a compound in maximum concentration was defined as 100%; and RFU(Max−Min) when adding DMSO instead of the compound in the same concentration as that of the compound was defined as 0%.

rat large intestine loop = assay: Effect of a CaSR agonist on water absorption in rat large intestine loop method (PGE2-treated); format: in vivo; details: male SD (IGS) rat large intestine loop, PGE2 i.p.; compound in Tyrode solution
Experimental: The cecum and large intestine were taken out from the abdomen of a male SD (IGS) rat under pentobarbital anesthesia, and a large intestine loop was prepared by ligating a part 5 cm just below the cecum. Immediately after preparing the loop, PGE2 (4 μg/mL/kg, SIGMA) was intraperitoneally administered. 30 minutes later, 2 mL of Tyrode solution (NaCl 136.9 mM, KCl 2.7 mM, CaCl2.2H2O 1.8 mM, MgCl2.6H2O 1.04 mM, NaH2PO4.2H2O 0.04 mM, glucose 5.55 mM, NaHCO3 11.9 mM) was poured in the prepared loop. 1 hour later, the weight of the loop, the weight thereof when the liquid was removed from the loop, and the loop area were measured to calculate the weight per unit area of the liquid that remains in the loop.
A test compound was tested by dissolving it in Tyrode solution that was adjusted to pH 6.5 to 7.5.
The remaining liquid weight per unit area (g/cm^2) was calculated by the following formula. Remaining liquid weight per unit area (g/cm^2)=(loop weight−loop weight when the liquid was removed from the loop)/loop area
Water absorption was evaluated by calculating the inhibition ratio by the following formula. Inhibition ration (%)=100−(remaining liquid weight per unit area with a drug−basic average remaining liquid weight per unit area)/(average remaining liquid weight per unit area of vehicle−basic average remaining liquid weight per unit area)×100 […]

[1] = Quantitative sensory evaluation test of kokumi-imparting activity; set-up: species or system human; details: for Intensity of kokumi After taste / Intensity of kokumi First-middle taste: score control 0, strong 3, very strong 5, n=4
Experimental: The kokumi-imparting effects can be confirmed by the method such as a gustatory test by a human being as mentioned in Examples of the present invention, but it is not limited to those.
On compounds wherein a calcium receptor activating action was found (sodium salts of Compound Nos. 1, 7 and 21), the intensity of kokumi-imparting activity was examined by a quantitative sensory evaluation test. The used compound was prepared by dissolving 525 mg of the compound No. 1 described in Synthetic Example 1 of Example I in 5 mL of distilled water, adjusting it to pH6.5 to 7 by adding 16.4 mL of 0.1M sodium hydroxide solution thereto, and freeze-drying it to obtain a sodium salt thereof. Further, the used compound was also prepared as follows. 500 mg of the compound No. 7 described in Synthetic Example 7 of Example I was suspended in 5 mL of distilled water. 1.61 mL of 1M sodium hydroxide and 0.8 mL of 2M hydrochloric acid were added thereto at 0° C. respectively to precipitate a solid substance. The precipitated solid substance was taken by filtration and dried under reduced pressure at 40° C. to obtain 426 mg of the compound No. 7. The obtained solid substance was suspended in 10 mL of distilled water. 1.2 mL of 1M sodium hydroxide was added thereto and freeze-dried to obtain a sodium salt thereof. The compound No. 21 was used in the form of a sodium salt of the compound No. 21 described in Synthetic Example 21 of Example I, which was prepared by the same method as mentioned above.
A quantitative sensory evaluation test was conducted as follows. 0.000001 to 0.1 g/dL of the compound(s) (a sodium salt of No. 1) was mixed as a sample to distilled water containing glutamic sodium (0.05 g/dL), inosine monophosphate (0.05 g/dL) and sodium chloride (0.5 g/dL). Then, the intensity of kokumi-imparting activity was examined at that time. As a reference, γ Glu-Cys-Gly and γ Glu-Val-Gly were used, each of which is a known kokumi-imparting component. As for a sample that becomes acidic to an additive-free control after dissolving the sample, it was used by being adjusted with sodium hydroxide to become within pH±0.2 to the additive-free control. As for sensory scoring, it was defined as a control: 0, strong: 3, and very strong: 5; and n=4. Meanwhile, “first-middle taste” means the taste combining first taste and middle taste. The kokumi-imparting activity was widely seen in the above addition concentrations, and the results of the representative concentrations are shown in Table 5.

- EC50 (human CaSR): 12 nM
Compound: N[C@@H](CCC(=O)Nc1cccc(S(=O)(=O)O)c1)C(=O)O [Compound No. 1, N^5-(3-sulfophenyl)-L-glutamine]
- Water absorption (rat large intestine loop): promoted in a dose-dependent manner

- EC50 (human CaSR): 1.9 nM
Compound: N[C@@H](CCC(=O)Nc1cc(Cl)cc(S(=O)(=O)O)c1O)C(=O)O [Compound No. 7, N^5-(5-chloro-2-hydroxy-3-sulfophenyl)-L-glutamine]
- Water absorption (rat large intestine loop): promoted in a dose-dependent manner

Compound: N[C@@H](CCC(=O)Nc1cccc(S(=O)(=O)[O-])c1)C(=O)O.[Na+] [No.1-Na salt]
- Intensity of kokumi After taste ([1]; Conc. 0.00001 g/dL): 1.0
- Intensity of kokumi First-middle taste ([1]; Conc. 0.00001 g/dL): 0.7
- Intensity of kokumi After taste ([1]; Conc. 0.0001 g/dL): 2.0
- Intensity of kokumi First-middle taste ([1]; Conc. 0.0001 g/dL): 1.8
- Intensity of kokumi After taste ([1]; Conc. 0.0005 g/dL): 3.0
- Intensity of kokumi First-middle taste ([1]; Conc. 0.0005 g/dL): 2.6
- Comments ([1]; Conc. 0.001 g/dL): All tastes are strong, mainly
- Intensity of kokumi After taste ([1]; Conc. 0.001 g/dL): 3.6
- Intensity of kokumi First-middle taste ([1]; Conc. 0.001 g/dL): 3.2
- Comments ([1]; Conc. 0.01 g/dL): All tastes are strong.
- Intensity of kokumi After taste ([1]; Conc. 0.01 g/dL): 5.0
- Intensity of kokumi First-middle taste ([1]; Conc. 0.01 g/dL): 5.0

Compound: N[C@@H](CCC(=O)Nc1cc(Cl)cc(S(=O)(=O)[O-])c1O)C(=O)O.[Na+] [No.7-Na salt]
- Intensity of kokumi After taste ([1]; Conc. 0.00005 g/dL): 2.5
- Intensity of kokumi First-middle taste ([1]; Conc. 0.00005 g/dL): 2.2
- Comments ([1]; Conc. 0.0001 g/dL): There is about the same thickness
- Intensity of kokumi After taste ([1]; Conc. 0.0001 g/dL): 3.2
- Intensity of kokumi First-middle taste ([1]; Conc. 0.0001 g/dL): 2.5
- Intensity of kokumi After taste ([1]; Conc. 0.0005 g/dL): 4.0
- Intensity of kokumi First-middle taste ([1]; Conc. 0.0005 g/dL): 3.3

Compound: Cc1c(Cl)cc(NC(=O)CC[C@H](N)C(=O)O)cc1S(=O)(=O)[O-].[Na+] [No.21-Na salt]
- Intensity of kokumi After taste ([1]; Conc. 0.0002 g/dL): 2.0
- Intensity of kokumi First-middle taste ([1]; Conc. 0.0002 g/dL): 1.5
- Intensity of kokumi After taste ([1]; Conc. 0.0005 g/dL): 3.1
- Intensity of kokumi First-middle taste ([1]; Conc. 0.0005 g/dL): 2.6
- Intensity of kokumi After taste ([1]; Conc. 0.001 g/dL): 3.7
- Intensity of kokumi First-middle taste ([1]; Conc. 0.001 g/dL): 3.1

Compound: γ Glu-Cys-Gly [γGlu-Cys-Gly, reference compound]
- Comments ([1]; Conc. 0.01 g/dL): Richness, thickness and continuity
- Intensity of kokumi After taste ([1]; Conc. 0.01 g/dL): 3.0
- Intensity of kokumi First-middle taste ([1]; Conc. 0.01 g/dL): 3.0

Compound: γ Glu-Val-Gly [γGlu-Val-Gly, reference compound]
- Comments ([1]; Conc. 0.001 g/dL): Mellowness, richness and growth
- Intensity of kokumi After taste ([1]; Conc. 0.001 g/dL): 3.0
- Intensity of kokumi First-middle taste ([1]; Conc. 0.001 g/dL): 2.5
- Comments ([1]; Conc. 0.005 g/dL): Mellowness, richness and growth
- Intensity of kokumi After taste ([1]; Conc. 0.005 g/dL): 4.0
- Intensity of kokumi First-middle taste ([1]; Conc. 0.005 g/dL): 3.5
